Measured values as given in ChEMBL document CHEMBL1201862, “PubChem BioAssay data set” (2004).
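1) Cells in 96-well plates. 2) Compound, 48 h, 5 concentrations. 3) Linear interpolation between surrounding doses. 4) Unreached endpoint = highest concentration. At the GI50, growth is halved.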 The source made the active and inactive calls. Cut-off read from the data, not from the text of the source: active = GI50 up to about 1.1 µM and inactive = higher.

Assays:
Assay in all cases: NCI anticancer screen, dose series, 48 h
[1] = tested on: COLO 205
[2] = tested on: SR
[3] = tested on: SK-MEL-2
[4] = tested on: T47D
[5] = tested on: MDA-N
[6] = tested on: MDA-MB-435
[7] = tested on: SNB-19
[8] = tested on: Hs-578T
[9] = tested on: MDA-MB-231
[10] = tested on: TK-10
[11] = tested on: NCI/ADR-RES
[12] = tested on: NCI-H460
[13] = tested on: SW-620
[14] = tested on: UO-31
[15] = tested on: 786-0
[16] = tested on: LOX IMVI
[17] = tested on: SK-OV-3
[18] = tested on: HOP-62
[19] = tested on: NCI-H226
[20] = tested on: OVCAR-3

In the case of CCCCCCNC(=O)c1cc(C#Cc2cc(OC)ccc2OC)ccc1OC, the GI50 [1] is reported as 55.3 µM (inactive), the GI50 [2] is reported as 3.18 µM (inactive) and the GI50 [3] is reported as > 100 µM (inactive). For the same molecule, the GI50 [4] was 2.31 µM (inactive), the GI50 [5] was 3.22 µM (inactive) and the GI50 [6] was 2.75 µM (inactive). The GI50 [7] was > 100 µM (inactive), the GI50 [8] was > 100 µM (inactive) and the GI50 [9] was > 100 µM (inactive). The GI50 [10] was > 100 µM (inactive), the GI50 [11] was 47.8 µM (inactive) and the GI50 [12] was 8.73 µM (inactive). For the same molecule, the GI50 [13] was 8.49 µM (inactive), the GI50 [14] was 62.1 µM (inactive) and the GI50 [15] was > 100 µM (inactive). The GI50 [16] was > 100 µM (inactive) and the GI50 [17] was > 100 µM (inactive).
C[n+]1c(-c2ccc(/C=N/Nc3n[nH]c(=S)n3N/N=C/c3ccc(-c4cn5ccccc5[n+]4C)cc3)cc2)cn2ccccc21 was tested, and the GI50 [1] was > 100 µM (inactive), the GI50 [18] was > 100 µM (inactive) and the GI50 [2] was > 100 µM (inactive). The GI50 [4] was > 100 µM (inactive), the GI50 [5] was > 100 µM (inactive) and the GI50 [6] was > 100 µM (inactive). The GI50 [7] was > 100 µM (inactive), the GI50 [8] was > 100 µM (inactive) and the GI50 [9] was > 100 µM (inactive). The GI50 [10] was > 100 µM (inactive), the GI50 [11] was > 100 µM (inactive) and the GI50 [12] was > 100 µM (inactive). For the same molecule, the GI50 [13] was > 100 µM (inactive), the GI50 [14] was > 100 µM (inactive) and the GI50 [15] was > 100 µM (inactive). The GI50 [17] was > 100 µM (inactive).
With O=c1[nH]nc(-c2ccccc2)n1/N=C\c1ccccc1 the GI50 [1] was > 100 µM (inactive), the GI50 [18] was > 100 µM (inactive) and the GI50 [19] was > 100 µM (inactive). The GI50 [20] was > 100 µM (inactive), the GI50 [2] was > 100 µM (inactive) and the GI50 [3] was > 100 µM (inactive). The GI50 [4] was > 100 µM (inactive), the GI50 [5] was > 100 µM (inactive) and the GI50 [6] was > 100 µM (inactive). The GI50 [8] was > 100 µM (inactive), the GI50 [9] was > 100 µM (inactive) and the GI50 [10] was > 100 µM (inactive). For the same molecule, the GI50 [11] was > 100 µM (inactive), the GI50 [12] was > 100 µM (inactive) and the GI50 [13] was > 100 µM (inactive). For the same molecule, the GI50 [14] was > 100 µM (inactive), the GI50 [15] was > 100 µM (inactive) and the GI50 [16] was > 100 µM (inactive).
COC(=O)c1c2c(cc3c1CC1(Cc4cc5c(c(C=O)c4C1)CCCC5)C3)CCCC2 (stereo not given) was tested, and the GI50 [1] was 20.7 µM (inactive), the GI50 [18] was 31.8 µM (inactive) and the GI50 [19] was 80 µM (inactive). For the same molecule, the GI50 [20] was 29.9 µM (inactive), the GI50 [2] was 36.8 µM (inactive) and the GI50 [3] was 10.2 µM (inactive). For the same molecule, the GI50 [4] was 45.3 µM (inactive), the GI50 [5] was 89.3 µM (inactive) and the GI50 [6] was > 100 µM (inactive). The GI50 [8] was 29.2 µM (inactive), the GI50 [9] was 32.7 µM (inactive) and the GI50 [10] was 97.9 µM (inactive). The GI50 [11] was 94.6 µM (inactive), the GI50 [14] was 0.103 µM (active) and the GI50 [15] was > 100 µM (inactive). For the same molecule, the GI50 [16] was > 100 µM (inactive) and the GI50 [17] was > 100 µM (inactive).
With Cc1nc2ccc(NC(=S)Nc3ccccc3)cc2c(=O)n1-c1ccccc1 the GI50 [1] was 80.4 µM (inactive), the GI50 [18] was > 100 µM (inactive) and the GI50 [19] was > 100 µM (inactive). The GI50 [20] was > 100 µM (inactive), the GI50 [2] was > 100 µM (inactive) and the GI50 [3] was 16.6 µM (inactive). The GI50 [4] was > 100 µM (inactive), the GI50 [5] was > 100 µM (inactive) and the GI50 [6] was > 100 µM (inactive). The GI50 [7] was > 100 µM (inactive), the GI50 [8] was > 100 µM (inactive) and the GI50 [9] was > 100 µM (inactive). The GI50 [10] was > 100 µM (inactive), the GI50 [11] was > 100 µM (inactive) and the GI50 [12] was 24.2 µM (inactive). The GI50 [13] was 76.7 µM (inactive), the GI50 [14] was > 100 µM (inactive) and the GI50 [15] was > 100 µM (inactive). The GI50 [16] was > 100 µM (inactive).
For Nc1ccc2c(c1)CN1C(=O)c3ccccc3C1=N2 [DANIQUIDONE], the GI50 [1] was 23.3 µM (inactive), the GI50 [18] was 9.71 µM (inactive) and the GI50 [19] was 45.9 µM (inactive). For the same molecule, the GI50 [20] was 40.9 µM (inactive), the GI50 [2] was 18.7 µM (inactive) and the GI50 [3] was > 79.8 µM (inactive). The GI50 [4] was 52.5 µM (inactive), the GI50 [5] was 49.4 µM (inactive) and the GI50 [6] was 29.2 µM (inactive). For the same molecule, the GI50 [7] was 29 µM (inactive), the GI50 [8] was 21.3 µM (inactive) and the GI50 [9] was 31.6 µM (inactive). For the same molecule, the GI50 [10] was 36.4 µM (inactive), the GI50 [11] was 66.1 µM (inactive) and the GI50 [12] was 15.5 µM (inactive). For the same molecule, the GI50 [13] was 24.5 µM (inactive), the GI50 [14] was 27.3 µM (inactive) and the GI50 [15] was 28.4 µM (inactive). The GI50 [16] was 35.7 µM (inactive).
For CN(C)Cc1cc(C(=O)/C=C/c2ccc(O)cc2)cc(CN(C)C)c1O, the GI50 [1] was 19.4 µM (inactive), the GI50 [18] was 38 µM (inactive) and the GI50 [19] was > 100 µM (inactive). For the same molecule, the GI50 [20] was 18.9 µM (inactive), the GI50 [2] was 23.1 µM (inactive) and the GI50 [3] was 30.3 µM (inactive). The GI50 [4] was 49.9 µM (inactive), the GI50 [5] was 37.7 µM (inactive) and the GI50 [6] was 35.4 µM (inactive). For the same molecule, the GI50 [7] was > 100 µM (inactive), the GI50 [8] was 60.5 µM (inactive) and the GI50 [9] was 25.2 µM (inactive). The GI50 [10] was 53.7 µM (inactive), the GI50 [11] was > 100 µM (inactive) and the GI50 [12] was 23.7 µM (inactive). For the same molecule, the GI50 [13] was 39.4 µM (inactive), the GI50 [14] was 63 µM (inactive) and the GI50 [15] was 34.4 µM (inactive). For the same molecule, the GI50 [16] was 29.7 µM (inactive).
